Legend:
[1] = system: Solid Ehrlich carcinoma (SEC); test: In vivo anti-tumor assay: tumor volume and tumor inhibition ratio; settings: SEC-bearing mice, 6 mg/kg; SEC control 5802 mm^3
Protocol: We used adult Swiss albino female mice with average body weight 18–23 g obtained from Theodor Bilharzia Research Institute in Giza, Egypt. Mice were kept under constant conditions of a 12 h light–dark cycle at temperatures below controlled moisture conditions (22 ± 2 °C) with standard laboratory mouse nutrition and water entries. Approval for the experimental protocol was provided from the ethical committee of Suez Canal University for this experimental protocol (approval number REC-06-2020, Faculty of Science, Suez Canal University). Mice were adapted for approximately 10 days before use in the experiment.
Solid Ehrlich carcinoma (SEC) was obtained from the National Cancer Institute (University of Cairo, Egypt). The tumor cell line proliferated in mice after serial implantation of the peritoneal cavity (I.P.) in 0.2 mL of physiological saline containing 1 × 10^6 viable cells for 24 h. […]
We measured the length and width of the tumor using a digital Vernier clipper (Tricle Brand, Shanghai, China), then we calculate the tumor volume using the formula: V = (L × W × W)/2, where V is tumor volume, W is tumor width, and L is tumor length, and calculated the tumor inhibition ratio% using the formula: TIR %= (C − T)/C × 100, where T represents mean tumor volume of treated group and C represents mean tumor volume of the control group.

[2] = Histopathological examination of liver and kidney (H&E); assay type: in vivo, mice
Protocol: (§1) We randomly divided 50 mice into groups 5 groups (10 mice in each group): normal control (I) (mice injected intraperitoneally with the same volume of solvent for 14 consecutive days); group II, a group of normal mice treated with compound 4 (mice injected intraperitoneally with newly produced compound 4 at a dose of 6 mg/kg per day for 14 days); group III, solid tumor group (mice were implanted with solid tumor); group IV, group were treated with 5-FU (after 10 days of tumor implantation, mice were treated with 6 mg/kg only once); and group V, solid tumor group were treated with compound 4 (after 10 days of tumor implantation, mice were treated with 6 mg/kg only once). after one day of the previous treatment, 10 mice from each group were sacrificed and tumor weight, tumor volume (length and width of solid femoral tumor), blood and liver samples were obtained from each group. A portion of each blood sample taken was used for complete blood count (CBC) and the rest was centrifuged to obtain the serum. Serum was used for biochemical parameter estimation. The livers were rapidly dissected, washed with isotonic saline, and dried. The experiment design is summarized in Supplementary Figure S3.
(§2) Complete blood counts (CBCs) were counted using an AbbottCELLDYN®1800 Automated Hematology Analyzer (Abbott Park, IL, USA) equipped with an off-the-shelf kit (Abbott Laboratories, Abbott Park, IL, USA). For microscopic histopathological examination, tumor and kidney slices were maintained in 10% formalin, dehydrated with graduated alcohol, embedded in paraffin sections, H&E stained, and hematoxylin stained.
Specimens from mice liver cells were fixed in 10% formalin saline. Then, the samples were dehydrated with ascending series of ethanol and embedded in paraffin. A […] thick section was stained with hematoxylin and eosin and examined under a light microscope.

[3] = Median lethal dose (LD50); settings: mouse, in vivo, ip; mice, I.p., 24 h mortality
Protocol: Adopting the procedure described by Finney, different known concentrations of the imidamide 4 were intraperitoneally injected into a group of eight mice (weight on average 21.1 g). […] This assay was carried out evaluate its dose-safety limit and select the dose to be used in the treatment.

[4] = system: THLE-2 normal liver cells; test: MTT assay, normal liver cells; assay type: cell-based; settings: Homo sapiens, THLE-2, mean ± SE, n = 3
HepG2 cells = test: Colony forming assay; assay type: cell-based, human; settings: HepG2, 100 μM
Protocol: HepG2 cells were allowed to attach to form a complete monolayer after seeding 200 cells per well (6-well plate) for 24 h. Five concentrations of compound 4 (0.01, 0.1, 1, 10, 100 µM) were added to the cultured cells, and cells were incubated for 48 h, followed by washing with PBS. After 7 days of incubation, the colonies were fixed and stained with 1% crystal violet in methanol for 3 h. Finally, the crystal violet stain was used for 20 min to stain and count the cells using the light microscope.

[5] = Hematological parameters (CBC) in mice; assay type: in vivo; settings: 6 mg/Kg BW; for Hemoglobin: mean ± SE n = 9
Protocol: as §1, §2

[6] = Serum biochemical parameters in mice; assay type: in vivo; settings: 6 mg/Kg BW
Protocol: as §1
Evaluation of the activities of aspartate aminotransferase (AST) and alanine aminotransferase (ALT) using a commercial kit (ELITech Clinical Systems, France). The serum albumin level was measured using a kit obtained from STANBIO Company (USA). A commercial kit from the BioDiagnostic Company (Cairo, Egypt) was used to evaluate creatinine and urea levels.

[7] = system: Caspase 3 and 9, Bcl-2, PI3K, AKT proteins in HepG2 cells; test: Western blot of apoptosis-related proteins; assay type: cell-based, human; settings: treated HepG2 vs untreated control, normalized to β-actin
Protocol: Protein expression analysis for phosphorylated/total phosphatidylinositol 3-kinase (PI3K), protein kinase B (Akt), Caspase 3 and 9 proteins, and Bcl-2 was performed using the Western blotting technique to confirm the mechanism of apoptosis induction by compound 4 in HepG2 cells compared to control. Detailed methodology is supported in Supplementary Materials.

Compound: O=C1NC(=S)N(c2ccc(O)cc2)/C1=C/c1cccs1 [Compound 4, (E)-1-(4-Hydroxyphenyl)-5-(thiophen-2-ylmethylene)-2-thioxoimidazolidin-4-one]
- tumor volume on the final day [1]: 2766 mm^3
- kidney histopathology ([2]; SEC-bearing mice treated): almost normal, intact renal corpuscles and tubules
- liver histopathology ([2]; SEC-bearing mice treated): liver lobules looking normal
- liver histopathology ([2]; normal mice treated): normal-looking liver lobules; some hepatocytes showed a hydropic degeneration and a balloon degeneration
- LD50 at 24 h [3]: 6 mg/kg
- IC50 [4]: 56.6 ± 1.5 µM
- number of colonies (HepG2 cells; 464 in control): 136
- inhibition at 100 µM (HepG2 cells; Homo sapiens, 48 h treatment, read-out: colony inhibition rate): ~88%
- RBC’s count ([5]; SEC-bearing mice, SEC control 7.52 ± 0.5): 9.3 ± 0.4 ×10^6/µL
- Hemoglobin ([5]; SEC-bearing mice, SEC control 11.8 ± 0.8): 13.3 ± 0.7 g/dL
- WBC’s count ([5]; SEC-bearing mice, SEC control 16.5 ± 3.4): 9.5 ± 1.9 ×10^3/µL
- RBC’s count ([5]; normal mice, normal control 8.8 ± 0.3): 8.7 ± 0.4 ×10^6/µL
- WBC’s count ([5]; normal mice, normal control 9.4 ± 1.2): 9.42 ± 1.3 ×10^3/µL
- Hemoglobin ([5]; normal mice, normal control 13.3 ± 0.7): 12.6 ± 0.5 g/dL
- Creatinine ([6]; SEC-bearing mice): 1.0 ± 0.1 mg/dL
- Albumin ([6]; SEC-bearing mice, SEC control 4.01 ± 0.4): 3.43 ± 0.1 g/dL
- Total Protein ([6]; SEC-bearing mice, SEC control 6.6 ± 0.4): 7.4 ± 0.2 g/dL
- Urea ([6]; SEC-bearing mice, SEC control 25.2 ± 2.3): 27 ± 1.5 mg/dL
- AST ([6]; SEC-bearing mice, SEC control 48.9 ± 5.5): 37.8 ± 8.4 U/L
- ALT ([6]; SEC-bearing mice, SEC control 50 ± 2.7): 37.4 ± 10.4 U/L
- Creatinine ([6]; normal mice, normal control 1.6 ± 0.2): 1.1 ± 0.2 mg/dL
- Albumin ([6]; normal mice, normal control 4.4 ± 0.4): 4.4 ± 0.8 g/dL
- Total Protein ([6]; normal mice, normal control 6.9 ± 0.4): 6.9 ± 1.5 g/dL
- Urea ([6]; normal mice, normal control 27.8 ± 2.6): 28.13 ± 2.7 mg/dL
- ALT ([6]; normal mice, normal control 35.3 ± 3.8): 43.25 ± 7.4 U/L
- AST ([6]; normal mice, normal control 37.4 ± 2.8): 44.9 ± 10.8 U/L
- AKT protein level [7]: decreased
- BCL2 protein level [7]: decreased
- Caspase 3 protein level [7]: upregulated
- Caspase 9 protein level [7]: upregulated
- PI3K protein level [7]: decreased
